{"source": "patent US20260284165A1", "about": "“COMPOSITIONS AND METHODS FOR TREATMENT OR P[…] OF CANCER INCLUDING TRIPLE NEGATIVE BREAST CANCER AND/OR LUNG CANCER” (The Medical College of Wisconsin, Inc., priority 2023, published 2026)", "data": [{"test_system": "splenocytes", "experiment": "IFNγ ELISPOT in splenocytes, cyclin E2 and KIF15 epitopes", "type": "cell-based, mice", "details": "after four immunizations", "description": "We developed both cyclin E2 and KIF15 MHC-II vaccines using the multi-scoring system to identify immunogenic epitopes (Table 4). […] This multi-antigen preventive vaccine should also help overcome antigen-negative variant escape that has been observed with single antigen vaccines. Currently, a mRNA vaccine is also in development that contains the epitopes of TOP2A, cyclin E2 or KIF15 and will test its efficacy and immune response in relevant preclinical animal models.", "values": [{"sequence": "SHNLRGVIPRSFEYL [p129]", "type I immunity (IFNγ ELISPOT)": "elicited type I immunity"}, {"sequence": "AAALCHFTSIEVVKK [p298]", "type I immunity (IFNγ ELISPOT)": "elicited type I immunity"}, {"sequence": "VVKSTSPVKLKTFKK [p334]", "type I immunity (IFNγ ELISPOT)": "elicited type I immunity"}]}]}
